# From US20160368992A1, “A METHOD OF INCREASING GIPCR SIGNALIZATION IN THE CELLS OF A SCOLIOTIC SUBJECT” (CHU SAINTE-JUSTINE, priority 2013, published 2016)
# Legend:
# [1] = tested on: MOR, LPA1R, MT2R receptors and Gi1, Gi2, Gi3 proteins; experiment: Western blot and qPCR for expression of GPCRs and Gi protein isoforms in MC3T3-E1 cells; type: cell-based
# Description: Thermo-Script™ reverse transcriptase (Invitrogen) was used to reverse transcribe mRNA into cDNA ([…] total concentration). Several dilutions were tested to choose the concentration that yielded the most efficient amplification. The human primers used were the following: […]
# Each amplification was performed in duplicate using […] of diluted cDNA, […] of 3 mM primer solution and […] of 2× QuantiTect™ SYBR Green PCR Master Mix (QIAGEN Inc, Ontario, Canada). All reaction mixes were run on Mx3000P™ system from Stratagene (Agilent Technologies Company, La Jolla, Calif.) and analyzed with MxPro™ QPCR Software also from Stratagene. Relative quantification was calculated with the delta CT method using β-actin as the endogenous control.
# Gi proteins isoforms expression levels were determined using Western blot technique. MC3T3-E1 cells were treated with PBS or rOPN 0.5 μg/ml overnight (R&D systems Inc., Minneapolis, USA). These cells were washed with cold PBS 1× then lysed in RIPA buffer (25 mM Tris.Hcl pH7.4, 150 mM NaCl, 1% NP-40, 1% sodium deoxycholate, 0.1% SDS) added with 5 mM NaVO4 and protease inhibitor cocktail (Roche molecular Biochemicals, Mannheim, Germany). Immunoblots were performed with primary antibodies directed specifically against Gi1, Gi2, Gi3, Gs, Phosphoserine, integrin β1 (Santa Cruz Biotechnology, Santa Cruz, Calif.), Mu opioid receptor (MOR) (abcam Toronto, ON, Canada), Lysophosphatidic acid receptor 1 (LPAR1) (assaybiotech Inc., USA), melatonin receptor 2 (MT2) and peroxidase-conjugated secondary antibody. […]
# Given that the level of GPCRs is critical for their signaling, it was of interest to examine whether the defective GiPCR signaling induced by OPN is the consequence of a quantitative reduction of these receptors. For this purpose, MC3T3-E1 cells were treated with PBS or rOPN and the cell lysates were analyzed by Western blot for the expression of three different GPCRs; including mu-opioid (MOR), lysophosphatidic acid type 1 (LPA1R) and melatonin type 2 (MT2R) receptors. […]
# GiPCR signaling = experiment: CDS (CellKey) functional evaluation of Gi protein-mediated receptor signaling in primary mouse osteoblasts; type: cell-based, mice; conditions: osteoblasts from bipedal CD44 knockout (CD44-/-) mice
# GsPCR signaling = experiment: CDS response to GsPCR stimulation (isoproterenol, desmopressin) in MC3T3-E1 cells; type: cell-based
# Excerpt: Taken into account these considerations and having observed that genetic deletion of OPN inversely influenced response to Gi and Gs stimulation (FIG. 1), it was of interest to examine the effect of OPN on the functional and phosphorylation status of Gs protein and on its interaction with receptors. For this purpose, cells were subjected to isoproterenol and desmopressin in the presence of rOPN or PBS. As expected, response to isoproterenol was higher in rOPN than in PBS-treated cells.
# Assuming that inhibition of Gi protein and phosphorylation of Gs protein are responsible for the increased GsPCR signaling associated with rOPN, the next experiments aimed to determine the contribution of each parameter. For this purpose, cells were treated with PTX to mimic disruption action of rOPN and compared to cells treated with rOPN alone or in combination with Src inhibitor (PP2) to prevent tyrosine phosphorylation. […] This modest difference was abolished by Src inhibitor (PP2). Similar observations were noted when cells were stimulated with desmopressin.
substance,measurement,setting,value
rOPN: exogenous recombinant osteopontin (R&D systems),"level of MOR, LPA1R and MT2R receptors","[1]; Western blot, rOPN vs PBS",not modified
same,"quantity of Gi proteins (Gi1, Gi2, Gi3)","[1]; immunoblotting, relative to PBS-treated cells",no significant effect
same,mRNA expression of Gi isoforms,"[1]; qPCR, PBS- vs rOPN-treated cells",no significant difference
same,response to DAMGO and oxymethazolin after rOPN treatment,GiPCR signaling,concentration-dependent decrease in response
same,response to isoproterenol (similar with desmopressin),GsPCR signaling; rOPN vs PBS-treated cells,higher
same,greater responsiveness to isoproterenol stimulation than PTX-treated cells,GsPCR signaling; rOPN-treated vs PTX-treated cells,30%
